# Assay results: patent US20220002283A1 (Mylan Laboratories Limited, priority 2019, published 2022)
# Key:
# [1] = Solid state stability, PXRD; format: physicochemical; set-up: key: X: crystalline; S: stable
# Method: Thus, the X-ray diffraction patterns of the co-crystals of provided herein were measured on a PANalytical X'PertPRO Powder X-ray diffractometer equipped with goniometer of θ/θ configuration and X'celerator detector. The Cu-anode X-ray tube was operated at 45 kV and 40 mA. The experiments were conducted over the 2θ range of 2.0°-50.0°, 0.030° step size and 189.865 time per step (seconds) and all the co-crystals were characterized with above mentioned method.
# (§1) The samples were analyzed by PXRD, assay and related substances by HPLC.
# [2] = Solid state stability, impurities by HPLC; format: physicochemical
# Method: A Zorbax Eclipse XDB C18 column was used with the mobile phase of methanol-acetonitrile-10 mM phosphate buffer solution at the detection wavelength of 350 nm and 260 nm. • Instrumentation: Waters HPLC system having 2695 model pump having UV/PDA detector with Empower chromatography software or its equivalent. • Chemicals: Dipotassium hydrogen phosphate, orthophosphoric acid, acetonitrile, water, sodium hydroxide, methanol. • Column: Zorbax Eclipse XDB C18 column, 250×4.6 mm, 5 μm. • Elution: Gradient. • Flow rate: 0.8 mL/min.
# as §1
# [3] = Solid state stability, HPLC meloxicam co-crystal assay; format: physicochemical; conditions: for A %: Co-former Assay % / M %: Meloxicam Assay %: samples as per Examples 1, 2, 3
# Method: • Instrumentation: Waters HPLC system having 2695 model pump having UV/PDA detector with Empower chromatography software or its equivalent. • Column: (A) Unison UK C18 column; (B) YMC Trait C18 EXRS Column, 250×4.6 mm, 5.0 micron; (C) Water Atlantis T3, 250×4.6 mm, 5 micron. • Mobile Phase: (A) methanol-acetonitrile-dipotassium phosphate buffer; or (B) acetonitrile-Sodium sulfate buffer solution • Detection wavelength: 210 nm and 360 nm
# as §1
# [4] = Solid state stability, physical and chemical (PXRD and HPLC), overall finding; conditions: 40° C./75% RH and 25° C./60% RH, three months
# Method: as §1
# [5] = physchem
# [6] = cited from earlier work
# [7] = 25° C./60% RH, 1 mo., samples as per Example 7 or 17
# [8] = 25° C./60% RH, 2 mo., samples as per Example 7 or 17
# [9] = 25° C./60% RH, 3 mo., samples as per Example 7 or 17
# [10] = 25° C./60% RH, Initial, samples as per Example 7 or 17
# [11] = 40° C./75% RH, 1 mo., samples as per Example 7, 17 or 14
# [12] = 40° C./75% RH, 2 mo., samples as per Example 7, 17 or 14
# [13] = 40° C./75% RH, 3 mo., samples as per Example 7 or 17
# [14] = 40° C./75% RH, Initial, samples as per Example 7, 17 or 14
smiles,measurement,setting,value
Cc1cnc(NC(=O)C2=C(O)c3ccccc3S(=O)(=O)N2C)s1.O=C(O)c1ccc2ccccc2c1O,PXRD,[1]; [7],S
same,PXRD,"[1]; 25° C./60% RH, 1 mo., samples as per Examples 1, 2, 3",S
same,PXRD,[1]; [8],S
same,PXRD,"[1]; 25° C./60% RH, 2 mo., samples as per Examples 1, 2, 3",S
same,PXRD,[1]; [9],S
same,PXRD,"[1]; 25° C./60% RH, 3 mo., samples as per Examples 1, 2, 3",S
same,PXRD,[1]; [10],X
same,PXRD,"[1]; 25° C./60% RH, Initial, samples as per Examples 1, 2, 3",X
same,PXRD,[1]; [11],S
same,PXRD,"[1]; 40° C./75% RH, 1 mo., samples as per Examples 1, 2, 3",S
same,PXRD,[1]; [12],S
same,PXRD,"[1]; 40° C./75% RH, 2 mo., samples as per Examples 1, 2, 3",S
same,PXRD,[1]; [13],S
same,PXRD,"[1]; 40° C./75% RH, 3 mo., samples as per Examples 1, 2, 3",S
same,PXRD,[1]; [14],X
same,PXRD,"[1]; 40° C./75% RH, Initial, samples as per Examples 1, 2, 3",X
same,"Impurities (% w/w, by HPLC) Methyl Meloxicam",[2]; [7],0.01 % w/w
same,"Impurities (% w/w, by HPLC) Other* (any other individual impurity)",[2]; [7],0.03 % w/w
same,"Impurities (% w/w, by HPLC) Total",[2]; [7],0.08 % w/w
same,"Impurities (% w/w, by HPLC) Methyl Meloxicam",[2]; [8],0.01 % w/w
same,"Impurities (% w/w, by HPLC) Other* (any other individual impurity)",[2]; [8],0.03 % w/w
same,"Impurities (% w/w, by HPLC) Total",[2]; [8],0.13 % w/w
same,"Impurities (% w/w, by HPLC) Methyl Meloxicam",[2]; [9],0.01 % w/w
same,"Impurities (% w/w, by HPLC) Other* (any other individual impurity)",[2]; [9],0.03 % w/w
same,"Impurities (% w/w, by HPLC) Total",[2]; [9],0.08 % w/w
same,"Impurities (% w/w, by HPLC) Methyl Meloxicam",[2]; [10],0.01 % w/w
same,"Impurities (% w/w, by HPLC) Other* (any other individual impurity)",[2]; [10],0.02 % w/w
same,"Impurities (% w/w, by HPLC) Total",[2]; [10],0.05 % w/w
same,"Impurities (% w/w, by HPLC) Methyl Meloxicam",[2]; [11],0.01 % w/w
same,"Impurities (% w/w, by HPLC) Other* (any other individual impurity)",[2]; [11],0.03 % w/w
same,"Impurities (% w/w, by HPLC) Total",[2]; [11],0.09 % w/w
same,"Impurities (% w/w, by HPLC) Methyl Meloxicam",[2]; [12],0.01 % w/w
same,"Impurities (% w/w, by HPLC) Other* (any other individual impurity)",[2]; [12],0.03 % w/w
same,"Impurities (% w/w, by HPLC) Total",[2]; [12],0.13 % w/w
same,"Impurities (% w/w, by HPLC) Methyl Meloxicam",[2]; [13],0.01 % w/w
same,"Impurities (% w/w, by HPLC) Other* (any other individual impurity)",[2]; [13],0.03 % w/w
same,"Impurities (% w/w, by HPLC) Total",[2]; [13],0.10 % w/w
same,"Impurities (% w/w, by HPLC) Methyl Meloxicam",[2]; [14],0.01 % w/w
same,"Impurities (% w/w, by HPLC) Other* (any other individual impurity)",[2]; [14],0.03 % w/w
same,"Impurities (% w/w, by HPLC) Total",[2]; [14],0.06 % w/w
same,"Meloxicam Related Compounds A, B, C, and D by HPLC","[2]; any timepoint from initiation up to 3 months, 40° C./75% RH and 25° C./60% RH","^#Meloxicam Related Compounds A, B, C, and D (see Table 4) were not detectable at any timepoint from initiation up to 3 months."
same,Assay (% by HPLC) M % (Meloxicam Assay %),[3]; [7],65.0%
same,A %: Co-former Assay %,"[3]; 25° C./60% RH, 1 mo.",34.5%
same,M %: Meloxicam Assay %,"[3]; 25° C./60% RH, 1 mo.",64.7%
same,Assay (% by HPLC) M % (Meloxicam Assay %),[3]; [8],63.5%
same,A %: Co-former Assay %,"[3]; 25° C./60% RH, 2 mo.",35.0%
same,M %: Meloxicam Assay %,"[3]; 25° C./60% RH, 2 mo.",65.0%
same,Assay (% by HPLC) M % (Meloxicam Assay %),[3]; [9],64.3%
same,A %: Co-former Assay %,"[3]; 25° C./60% RH, 3 mo.",34.0%
same,M %: Meloxicam Assay %,"[3]; 25° C./60% RH, 3 mo.",64.6%
same,Assay (% by HPLC) M % (Meloxicam Assay %),[3]; [10],65.1%
same,A %: Co-former Assay %,"[3]; 25° C./60% RH, Initial",34.2%
same,M %: Meloxicam Assay %,"[3]; 25° C./60% RH, Initial",64.3%
same,Assay (% by HPLC) M % (Meloxicam Assay %),[3]; [11],64.7%
same,A %: Co-former Assay %,"[3]; 40° C./75% RH, 1 mo.",34.9%
same,M %: Meloxicam Assay %,"[3]; 40° C./75% RH, 1 mo.",64.9%
same,Assay (% by HPLC) M % (Meloxicam Assay %),[3]; [12],64.0%
same,M %: Meloxicam Assay %,"[3]; 40° C./75% RH, 2 mo.",64.8%
same,Assay (% by HPLC) M % (Meloxicam Assay %),[3]; [13],64.4%
same,A %: Co-former Assay %,"[3]; 40° C./75% RH, 3 mo.",34.2%
same,M %: Meloxicam Assay %,"[3]; 40° C./75% RH, 3 mo.",65.5%
same,Assay (% by HPLC) M % (Meloxicam Assay %),[3]; [14],65.2%
same,A %: Co-former Assay %,"[3]; 40° C./75% RH, Initial",34.2%
same,M %: Meloxicam Assay %,"[3]; 40° C./75% RH, Initial",64.3%
same,physical and chemical stability,[4],physically and chemically stable
O=C(O)c1ccc2ccccc2c1O [1-Hydroxy-2-naphthoic acid],pKa,[5],1.5
O=C(O)c1ccc(O)cc1 [4-Hydroxybenzoic acid],pKa,[5],-0.38
same,pKa (co-former),[6],4.58
O=C(O)CCc1ccccc1 [Hydrocinnamic acid],pKa,[5],-0.46
same,pKa (co-former),[6],4.66
